From the supplement of paper PMC10307832

Legend:
Experiment in all cases: relative viability (nuclei count vs DMSO), 5 days (fraction); higher = more cells survive
ABC-1 = system: ABC-1
How it was run: (§1)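 Lung cancer cell lines in 1536-well plates got either a single drug or a fixed anchor-drug dose together with five library-drug doses (not always all listed) in √10 steps, by pin tool, on the day after seeding. Nuclei were counted after 5 days, and relative viability is the treated-to-vehicle ratio of nuclei counts. Values are medians of duplicate plates.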

CAL-12T = system: CAL-12T
How it was run: as §1

ChaGo-K-1 = system: ChaGo-K-1
How it was run: as §1

HCC-366 = system: HCC-366
How it was run: as §1

HCC-78 = system: HCC-78
How it was run: as §1

LC-2-ad = system: LC-2-ad
How it was run: as §1

LOU-NH91 = system: LOU-NH91
How it was run: as §1

LU99A = system: LU99A
How it was run: as §1

NCI-H1395 = system: NCI-H1395
How it was run: as §1

NCI-H1651 = system: NCI-H1651
How it was run: as §1

NCI-H1755 = system: NCI-H1755
How it was run: as §1

NCI-H1793 = system: NCI-H1793
How it was run: as §1

NCI-H1944 = system: NCI-H1944
How it was run: as §1

NCI-H2087 = system: NCI-H2087
How it was run: as §1

NCI-H2170 = system: NCI-H2170
How it was run: as §1

NCI-H2228 = system: NCI-H2228
How it was run: as §1

NCI-H2405 = system: NCI-H2405
How it was run: as §1

NCI-H3122 = system: NCI-H3122
How it was run: as §1

NCI-H460 = system: NCI-H460
How it was run: as §1

PC-3 [JPC-3] = system: PC-3 [JPC-3]
How it was run: as §1

RERF-LC-KJ = system: RERF-LC-KJ
How it was run: as §1

UMC-11 = system: UMC-11
How it was run: as §1

`CC(=O)O[C@@]12CO[C@@H]1C[C@H](O)[C@@]1(C)C(=O)[C@H](O)C3=C(C)[C@@H](OC(=O)[C@H](O)[C@@H](NC(=O)OC(C)(C)C)c4ccccc4)C[C@@](O)([C@@H](OC(=O)c4ccccc4)[C@H]21)C3(C)C` [Docetaxel] + CS(=O)(=O)N1CCN(Cc2cc3nc(-c4cccc5[nH]ncc45)nc(N4CCOCC4)c3s2)CC1 [Pictilisib] (partner 1 µM) gave a relative viability (ABC-1; first compound 0.0002 µM) of 0.772, a relative viability (ABC-1; first compound 0.000632 µM) of 0.685 and a relative viability (ABC-1; first compound 0.002 µM) of 0.442. The relative viability (ABC-1; first compound 0.006325 µM) was 0.304, the relative viability (ABC-1; first compound 0.02 µM) was 0.253 and the relative viability (CAL-12T; first compound 0.0002 µM) was 0.53. The relative viability (CAL-12T; first compound 0.000632 µM) was 0.271, the relative viability (CAL-12T; first compound 0.002 µM) was 0.268 and the relative viability (CAL-12T; first compound 0.006325 µM) was 0.24. It also gave a relative viability (CAL-12T; first compound 0.02 µM) of 0.171, a relative viability (ChaGo-K-1; first compound 0.0002 µM) of 0.771 and a relative viability (ChaGo-K-1; first compound 0.000632 µM) of 0.421. It also gave a relative viability (ChaGo-K-1; first compound 0.002 µM) of 0.44, a relative viability (ChaGo-K-1; first compound 0.006325 µM) of 0.354 and a relative viability (ChaGo-K-1; first compound 0.02 µM) of 0.201. For the same compound, the relative viability (HCC-366; first compound 0.0002 µM) was 0.0877, the relative viability (HCC-366; first compound 0.002 µM) was 0.0735 and the relative viability (HCC-366; first compound 0.006325 µM) was 0.0362. It also gave a relative viability (HCC-366; first compound 0.02 µM) of 0.0228, a relative viability (HCC-78; first compound 0.0002 µM) of 0.204 and a relative viability (HCC-78; first compound 0.000632 µM) of 0.185. For the same compound, the relative viability (HCC-78; first compound 0.002 µM) was 0.172, the relative viability (HCC-78; first compound 0.006325 µM) was 0.166 and the relative viability (HCC-78; first compound 0.02 µM) was 0.204. The relative viability (LC-2-ad; first compound 0.0002 µM) was 0.29, the relative viability (LC-2-ad; first compound 0.002 µM) was 0.106 and the relative viability (LC-2-ad; first compound 0.006325 µM) was 0.113. It also gave a relative viability (LC-2-ad; first compound 0.02 µM) of 0.0847, a relative viability (LOU-NH91; first compound 0.0002 µM) of 0.524 and a relative viability (LOU-NH91; first compound 0.000632 µM) of 0.491. The relative viability (LOU-NH91; first compound 0.002 µM) was 0.38, the relative viability (LOU-NH91; first compound 0.006325 µM) was 0.318 and the relative viability (LOU-NH91; first compound 0.02 µM) was 0.339. For the same compound, the relative viability (LU99A; first compound 0.0002 µM) was 0.337, the relative viability (LU99A; first compound 0.000632 µM) was 0.249 and the relative viability (LU99A; first compound 0.002 µM) was 0.267. The relative viability (LU99A; first compound 0.006325 µM) was 0.191, the relative viability (LU99A; first compound 0.02 µM) was 0.148 and the relative viability (NCI-H1395; first compound 0.0002 µM) was 0.53. For the same compound, the relative viability (NCI-H1395; first compound 0.000632 µM) was 0.617, the relative viability (NCI-H1395; first compound 0.002 µM) was 0.543 and the relative viability (NCI-H1395; first compound 0.006325 µM) was 0.382. It also gave a relative viability (NCI-H1395; first compound 0.02 µM) of 0.384, a relative viability (NCI-H1651; first compound 0.0002 µM) of 0.477 and a relative viability (NCI-H1651; first compound 0.000632 µM) of 0.443. For the same compound, the relative viability (NCI-H1651; first compound 0.002 µM) was 0.206, the relative viability (NCI-H1651; first compound 0.006325 µM) was 0.095 and the relative viability (NCI-H1651; first compound 0.02 µM) was 0.0784. For the same compound, the relative viability (NCI-H1755; first compound 0.0002 µM) was 0.346, the relative viability (NCI-H1755; first compound 0.000632 µM) was 0.306 and the relative viability (NCI-H1755; first compound 0.002 µM) was 0.264. The relative viability (NCI-H1755; first compound 0.006325 µM) was 0.249, the relative viability (NCI-H1755; first compound 0.02 µM) was 0.183 and the relative viability (NCI-H1793; first compound 0.0002 µM) was 0.323. The relative viability (NCI-H1793; first compound 0.000632 µM) was 0.369, the relative viability (NCI-H1793; first compound 0.002 µM) was 0.279 and the relative viability (NCI-H1793; first compound 0.006325 µM) was 0.289. For the same compound, the relative viability (NCI-H1793; first compound 0.02 µM) was 0.204, the relative viability (NCI-H1944; first compound 0.0002 µM) was 0.338 and the relative viability (NCI-H1944; first compound 0.000632 µM) was 0.368. The relative viability (NCI-H1944; first compound 0.002 µM) was 0.318, the relative viability (NCI-H1944; first compound 0.006325 µM) was 0.322 and the relative viability (NCI-H1944; first compound 0.02 µM) was 0.178. For the same compound, the relative viability (NCI-H2087; first compound 0.0002 µM) was 0.841, the relative viability (NCI-H2087; first compound 0.000632 µM) was 0.631 and the relative viability (NCI-H2087; first compound 0.002 µM) was 0.284. It also gave a relative viability (NCI-H2087; first compound 0.006325 µM) of 0.34, a relative viability (NCI-H2087; first compound 0.02 µM) of 0.193 and a relative viability (NCI-H2170; first compound 0.0002 µM) of 0.342. It also gave a relative viability (NCI-H2170; first compound 0.000632 µM) of 0.288, a relative viability (NCI-H2170; first compound 0.002 µM) of 0.183 and a relative viability (NCI-H2170; first compound 0.006325 µM) of 0.186. It also gave a relative viability (NCI-H2228; first compound 0.0002 µM) of 0.291, a relative viability (NCI-H2228; first compound 0.000632 µM) of 0.153 and a relative viability (NCI-H2228; first compound 0.002 µM) of 0.138. For the same compound, the relative viability (NCI-H2228; first compound 0.006325 µM) was 0.18, the relative viability (NCI-H2228; first compound 0.02 µM) was 0.131 and the relative viability (NCI-H2405; first compound 0.0002 µM) was 0.393. The relative viability (NCI-H2405; first compound 0.000632 µM) was 0.429, the relative viability (NCI-H2405; first compound 0.002 µM) was 0.39 and the relative viability (NCI-H2405; first compound 0.006325 µM) was 0.272. It also gave a relative viability (NCI-H2405; first compound 0.02 µM) of 0.182, a relative viability (NCI-H3122; first compound 0.0002 µM) of 0.567 and a relative viability (NCI-H3122; first compound 0.000632 µM) of 0.577. It also gave a relative viability (NCI-H3122; first compound 0.002 µM) of 0.396, a relative viability (NCI-H3122; first compound 0.006325 µM) of 0.217 and a relative viability (NCI-H3122; first compound 0.02 µM) of 0.172. For the same compound, the relative viability (NCI-H460; first compound 0.0002 µM) was 0.351, the relative viability (NCI-H460; first compound 0.000632 µM) was 0.3 and the relative viability (NCI-H460; first compound 0.002 µM) was 0.144. For the same compound, the relative viability (NCI-H460; first compound 0.006325 µM) was 0.0682, the relative viability (NCI-H460; first compound 0.02 µM) was 0.0373 and the relative viability (PC-3 [JPC-3]; first compound 0.0002 µM) was 0.693. It also gave a relative viability (PC-3 [JPC-3]; first compound 0.000632 µM) of 0.715, a relative viability (PC-3 [JPC-3]; first compound 0.002 µM) of 0.454 and a relative viability (PC-3 [JPC-3]; first compound 0.006325 µM) of 0.329. The relative viability (PC-3 [JPC-3]; first compound 0.02 µM) was 0.229, the relative viability (RERF-LC-KJ; first compound 0.0002 µM) was 0.525 and the relative viability (RERF-LC-KJ; first compound 0.000632 µM) was 0.408. The relative viability (RERF-LC-KJ; first compound 0.002 µM) was 0.189, the relative viability (RERF-LC-KJ; first compound 0.006325 µM) was 0.223 and the relative viability (RERF-LC-KJ; first compound 0.02 µM) was 0.104. It also gave a relative viability (UMC-11; first compound 0.0002 µM) of 0.799, a relative viability (UMC-11; first compound 0.000632 µM) of 0.835 and a relative viability (UMC-11; first compound 0.002 µM) of 0.245. For the same compound, the relative viability (UMC-11; first compound 0.006325 µM) was 0.226 and the relative viability (UMC-11; first compound 0.02 µM) was 0.136.
